Experimental findings from PubChem BioAssay (NCI) are described below.

Some test systems named below: ACHN renal; SF-295 CNS; CAKI-1 renal; A549 NSCLC; HCT-15 colon; HT29 colon; SR leukemia; EKVX NSCLC; U251 CNS; UACC-257 melanoma; OVCAR-5 ovarian; SK-OV-3 ovarian; SK-MEL-28 melanoma; A498 renal; BT-549 breast; MDA-MB-231 breast; PC-3 prostate; DU-145 prostate; NCI-H522 lung.
Holding throughout (experiment): NCI tumour cell line growth inhibition, 48 h

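Briefly, cells in 96-well plates were exposed to five compound concentrations for 48 h, and endpoints were estimated by linear interpolation. At the TGI there is no net growth.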

On to `CCOC1C(Br)Cn2c(=O)c3cc4ccccc4cc3c(=O)n2C1C` (stereo not given), for which the TGI in the assay with ACHN renal, in the assay with SF-295 CNS, with CAKI-1 renal, in the assay with A549 NSCLC, in the assay with HCT-15 colon and in the assay on HT29 colon was above 100 µM in each case. Moreover, the TGI in the assay on SR leukemia, with EKVX NSCLC, with U251 CNS, with UACC-257 melanoma, in the assay on OVCAR-5 ovarian and with SK-OV-3 ovarian was above 100 µM each time. For the same compound, the results for the TGI in the assay with SK-MEL-28 melanoma and in the assay with A498 renal were above 100 µM and 78.7 µM, respectively.
For the compound `CC1(C)C2CCC1(C)C(N/C(Sc1ccccc1)=C(/C(Cl)=C(Cl)Cl)[N+](=O)[O-])C2` (stereo not given), the TGI turned out to be 28.8 µM in the assay with BT-549 breast; 26.3 µM in the assay with ACHN renal; 22 µM in the assay on MDA-MB-231 breast; 27.7 µM with SF-295 CNS; 28.5 µM with CAKI-1 renal; 45.9 µM with A549 NSCLC. The TGI was 21.1 µM in the assay with PC-3 prostate; 24.1 µM in the assay on HCT-15 colon; 30.7 µM in the assay with HT29 colon; 57.8 µM in the assay with EKVX NSCLC; 23.5 µM in the assay with U251 CNS; 61.1 µM in the assay with DU-145 prostate. Further, the TGI with UACC-257 melanoma stood at 27.4 µM; with OVCAR-5 ovarian, 65.5 µM; in the assay with SK-OV-3 ovarian it was 34.7 µM; in the assay with SK-MEL-28 melanoma, 24.9 µM; with A498 renal, 28.2 µM.
Take `CC1(C)OCN(c2ccc(N3CCOCC3)cc2)Cn2c1nc1ccccc12`: the TGI was above 100 µM with ACHN renal; above 100 µM in the assay with SF-295 CNS; above 100 µM in the assay with A549 NSCLC; above 100 µM with HCT-15 colon; above 100 µM with HT29 colon; 92.7 µM in the assay with SR leukemia. In addition, the TGI in the assay on EKVX NSCLC, in the assay on U251 CNS, with UACC-257 melanoma, in the assay on SK-OV-3 ovarian, with NCI-H522 lung and in the assay with SK-MEL-28 melanoma was above 100 µM each time. The TGI with A498 renal was above 100 µM.
With `O=C1COc2cc(NC(=S)Nc3ccccc3)ccc2N1`, the TGI with ACHN renal, in the assay on SF-295 CNS, in the assay on CAKI-1 renal, in the assay with A549 NSCLC, in the assay with HCT-15 colon and in the assay on HT29 colon was above 100 µM each time. Further, the TGI with SR leukemia, with EKVX NSCLC, in the assay with U251 CNS, with UACC-257 melanoma, with OVCAR-5 ovarian and in the assay on SK-OV-3 ovarian was above 100 µM each time. In addition, the TGI in the assay with NCI-H522 lung and with SK-MEL-28 melanoma was above 100 µM each time.
Regarding `CC1(c2cccc(C3CC4(CCC3=O)OCCCCO4)c2)OCCO1` (stereo not given), the TGI with ACHN renal, in the assay with SF-295 CNS, with CAKI-1 renal, in the assay with A549 NSCLC, with HCT-15 colon and with HT29 colon was above 100 µM in each case. Besides, the TGI in the assay with U251 CNS, with UACC-257 melanoma, with OVCAR-5 ovarian, in the assay with SK-OV-3 ovarian, in the assay with NCI-H522 lung and in the assay on SK-MEL-28 melanoma was above 100 µM each time. In the assay with A498 renal, this compound yielded a TGI above 100 µM.
For the compound `O=C1C2=Cc3ccccc3OC2(O)Oc2cc3ccccc3cc21` (stereo not given), the TGI in the assay on BT-549 breast, in the assay on ACHN renal, with MDA-MB-231 breast, in the assay on SF-295 CNS, in the assay with CAKI-1 renal and in the assay on A549 NSCLC was above 100 µM each time. Besides, the TGI in the assay on PC-3 prostate, in the assay on HCT-15 colon, in the assay on HT29 colon, in the assay on SR leukemia, in the assay with EKVX NSCLC and in the assay on U251 CNS was above 100 µM throughout. Further, the TGI with DU-145 prostate, with UACC-257 melanoma, in the assay with OVCAR-5 ovarian, with SK-OV-3 ovarian, in the assay on SK-MEL-28 melanoma and with A498 renal was above 100 µM each time.
For the compound `CCC(CC)NC1=C(NC(C)=O)C(=O)c2ccccc2C1=O`, the TGI in the assay with ACHN renal, in the assay with SF-295 CNS, in the assay with A549 NSCLC, with HCT-15 colon, in the assay with HT29 colon and with SR leukemia was above 50 µM throughout. For the same compound, the TGI with EKVX NSCLC, in the assay with U251 CNS, in the assay on UACC-257 melanoma, in the assay on SK-OV-3 ovarian, in the assay with NCI-H522 lung and in the assay with SK-MEL-28 melanoma was above 50 µM each time.
In the case of `COc1ccc2nc3cc(Cl)ccc3c(Sc3ccc([N+](=O)[O-])cc3C)c2c1`, the TGI in the assay with ACHN renal, in the assay with SF-295 CNS, in the assay on CAKI-1 renal, with A549 NSCLC, in the assay on HCT-15 colon and in the assay with SR leukemia was above 100 µM in each case. Moreover, the TGI in the assay on EKVX NSCLC, with U251 CNS, in the assay with UACC-257 melanoma, in the assay on OVCAR-5 ovarian, in the assay with SK-OV-3 ovarian and in the assay on NCI-H522 lung was above 100 µM each time. In addition, the TGI in the assay on SK-MEL-28 melanoma and in the assay with A498 renal was above 100 µM each time.
Take `COc1cc(C=O)c(-c2c(C=O)ccc3c2OCO3)c(OC)c1OC`: the TGI in the assay on ACHN renal, with SF-295 CNS, with CAKI-1 renal, with A549 NSCLC, in the assay on HCT-15 colon and with HT29 colon was above 100 µM in each case. The TGI in the assay with SR leukemia, in the assay on EKVX NSCLC, in the assay on U251 CNS, in the assay on UACC-257 melanoma, in the assay on OVCAR-5 ovarian and with SK-OV-3 ovarian was above 100 µM throughout. In addition, the TGI in the assay with NCI-H522 lung, with SK-MEL-28 melanoma and in the assay with A498 renal was above 100 µM throughout.
On to `OCC12C=CC(C1)c1ccccc12` (stereo not given), for which the TGI in the assay with ACHN renal, in the assay with SF-295 CNS, in the assay with CAKI-1 renal, in the assay with A549 NSCLC, in the assay with HCT-15 colon and in the assay on HT29 colon was above 100 µM each time. Further, the TGI in the assay on SR leukemia, in the assay with U251 CNS, with UACC-257 melanoma, with OVCAR-5 ovarian, in the assay on SK-OV-3 ovarian and in the assay with SK-MEL-28 melanoma was above 100 µM each time. Further, in the assay on A498 renal, the TGI was above 100 µM.
With `CCN1C[C@]2(C)CC[C@H](O)C34C1C(C[C@@H]32)[C@@]1(O)CC[C@H]2C[C@@H]4[C@@H]1[C@H]2O`, the TGI in the assay on ACHN renal, with SF-295 CNS, with CAKI-1 renal, with A549 NSCLC, in the assay on HCT-15 colon and in the assay with HT29 colon was above 100 µM each time. Besides, the TGI in the assay with SR leukemia, in the assay on U251 CNS, in the assay with UACC-257 melanoma, in the assay on OVCAR-5 ovarian, in the assay with SK-OV-3 ovarian and in the assay with NCI-H522 lung was above 100 µM in each case. For the same compound, the TGI with SK-MEL-28 melanoma was above 100 µM.
Consider `COc1ccc(-c2c(C(C)=O)c(-c3ccccc3)n(C3OC(CO)C(O)C(O)C3O)c(=S)c2C#N)cc1` (stereo not given), for which the TGI in the assay with ACHN renal, in the assay on MDA-MB-231 breast, with SF-295 CNS, with CAKI-1 renal, in the assay with A549 NSCLC and in the assay with HCT-15 colon was above 100 µM in each case. Moreover, the TGI in the assay with HT29 colon, in the assay with EKVX NSCLC, in the assay on U251 CNS, in the assay with DU-145 prostate, in the assay on UACC-257 melanoma and in the assay on OVCAR-5 ovarian was above 100 µM throughout. Moreover, the TGI in the assay on SK-OV-3 ovarian, in the assay with NCI-H522 lung, with SK-MEL-28 melanoma and in the assay on A498 renal was above 100 µM in each case.
Regarding `O=S(Cc1ccccc1)c1nc2ccccc2nc1-c1cccs1` (stereo not given), the TGI was 26.9 µM in the assay with ACHN renal; 52.9 µM in the assay on SF-295 CNS; 30.7 µM in the assay on A549 NSCLC; 25.5 µM with HCT-15 colon; 27.1 µM with HT29 colon; 60.6 µM with EKVX NSCLC. Further, the TGI in the assay on U251 CNS came to 33.5 µM; in the assay with UACC-257 melanoma it was 26.5 µM; in the assay on OVCAR-5 ovarian, 31.9 µM; in the assay with SK-OV-3 ovarian, 85.4 µM; in the assay on NCI-H522 lung, 3.4 µM; with SK-MEL-28 melanoma, 23.9 µM.
`Cc1c(N2C(=O)C(Cl)C2/C=C/c2ccccc2)c(=O)n(-c2ccccc2)n1C` (stereo not given): the TGI is above 100 µM in the assay on BT-549 breast; 45.6 µM in the assay on ACHN renal; 72.8 µM in the assay with MDA-MB-231 breast; 48.1 µM in the assay with SF-295 CNS; above 100 µM in the assay on CAKI-1 renal; 86.9 µM with A549 NSCLC. For the same compound, the TGI with PC-3 prostate is above 100 µM; in the assay with HT29 colon, 56.3 µM; in the assay with SR leukemia it was 43.9 µM; in the assay on EKVX NSCLC, 34.4 µM; with U251 CNS, 21.1 µM; in the assay on DU-145 prostate, above 100 µM. The TGI with UACC-257 melanoma was 33 µM; in the assay on OVCAR-5 ovarian, above 100 µM; with SK-OV-3 ovarian, 76.6 µM; in the assay with NCI-H522 lung, 34.5 µM.
